# Test results reported in US8821839B2, “Compositions and methods for imparting a sunless tan with a vicinal diamine” (Conopco, Inc., priority 2010, dated 2014).
# Assay: Individual Typologic Angle change on synthetic skin for 2.5% DHA plus adjuvant in citric acid/citrate buffer solution
# Settings: adjuvant at molar equivalent of 1% glycine; for ΔITA ° after 2 hours: pH about 5.5, 2 hours; for ΔITA ° after 4 hours: pH about 5.5, 4 hours
# Experimental: The synthetic skin was pre-hydrated at 95% RH for 24 hours and then treated with portions of the samples at a dosage of 5 μL/cm^2. The treated synthetic skin was then stored at 35° C. and 40% RH for periods up to 24 hours. […]
# Formulations in Table IV containing 2.5% DHA and the molar equivalent of 1% glycine as adjuvant in a citric acid/citrate buffer solution were prepared. The formulations were adjusted to a pH of about 5.5 to mimic the formulation pH after application to human skin.
# Individual Typologic Angle results were obtained in a manner similar to the one described in Example 1.
structure (smiles),measurement,value
"NC1CCCCC1N (stereo not shown) [1,2-diamino cyclohexane]",ΔITA ° after 2 hours,20 ± 3 °
same,ΔITA ° after 4 hours,35 ± 3 °
"CC(N)CN (stereo not shown) [1,2-diamino propane]",ΔITA ° after 2 hours,17 ± 2 °
same,ΔITA ° after 4 hours,32 ± 3 °
"NCCCN [1,3-diamino propane]",ΔITA ° after 2 hours,6 ± 3 °
same,ΔITA ° after 4 hours,16 ± 4 °
"NCCCCN [1,4-diamino butane]",ΔITA ° after 2 hours,4 ± 2 °
same,ΔITA ° after 4 hours,12 ± 4 °
"NC1C(O)OC(CO)C(O)C1N (stereo not shown) [3,4-diamino-6-hydroxymethyl-tetrahydro-pyrane 2,5-diol]",ΔITA ° after 2 hours,15 ± 3 °
same,ΔITA ° after 4 hours,23 ± 2 °
NCCN [Ethylene diamine],ΔITA ° after 2 hours,16 ± 2 °
same,ΔITA ° after 4 hours,32 ± 3 °
NCC(=O)O [Glycine],ΔITA ° after 2 hours,2 ± 1 °
same,ΔITA ° after 4 hours,7 ± 2 °
"CN(C)CCN [N,N-dimethyl ethylene diamine]",ΔITA ° after 2 hours,4 ± 2 °
same,ΔITA ° after 4 hours,8 ± 2 °
